The values that follow come from patent US7074789B2, “Kinase inhibitors” (Amgen Inc., priority 1999, dated 2006).

Type in all cases: biochemical
The target of one assay is T1, Lck (Homo sapiens, UniProt P06239).
T1 construct: Kinases are expressed as either kinase domains or full length constructs; made in house
Briefly: Kinase inhibition assay (33P transfer), Lck. Conditions: read-out: Lck-1. An outline of the steps:
(§1)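 Kinase domain or full-length constructs, GST- or polyHis-tagged, expressed in E. coli or baculovirus-High Five cells, sometimes with regulatory polypeptides. Activity measured as 33PO4 transfer from ATP to plate-bound poly(Glu,Tyr) 4:1 or poly(Arg,Ser) 3:1; after incubation, plates washed with 0.5% phosphoric acid and counted by liquid scintillation.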

The target of a further assay is T2, Zap-70 (Homo sapiens, UniProt P43403).
T2 construct: Kinases are expressed as either kinase domains or full length constructs; made in house
T2 sequence (P43403 1-619): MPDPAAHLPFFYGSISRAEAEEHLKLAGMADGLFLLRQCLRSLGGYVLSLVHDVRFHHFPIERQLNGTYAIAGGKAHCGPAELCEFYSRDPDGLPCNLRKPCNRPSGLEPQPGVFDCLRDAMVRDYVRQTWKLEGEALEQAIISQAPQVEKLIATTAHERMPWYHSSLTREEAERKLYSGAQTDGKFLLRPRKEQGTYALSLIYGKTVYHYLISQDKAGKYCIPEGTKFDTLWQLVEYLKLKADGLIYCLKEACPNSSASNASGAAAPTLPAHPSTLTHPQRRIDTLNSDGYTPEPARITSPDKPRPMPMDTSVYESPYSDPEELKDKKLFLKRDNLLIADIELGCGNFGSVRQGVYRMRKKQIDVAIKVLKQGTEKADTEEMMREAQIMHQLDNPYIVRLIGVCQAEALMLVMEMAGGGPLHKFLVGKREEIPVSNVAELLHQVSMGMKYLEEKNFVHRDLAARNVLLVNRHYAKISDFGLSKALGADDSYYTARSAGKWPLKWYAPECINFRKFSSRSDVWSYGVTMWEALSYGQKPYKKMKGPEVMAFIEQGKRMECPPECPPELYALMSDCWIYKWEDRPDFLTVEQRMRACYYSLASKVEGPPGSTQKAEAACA
Briefly: Kinase inhibition assay (33P transfer), Zap-70. Conditions: read-out: Zap-1. An outline of the steps:
as §1

In a further assay the target is T3, Itk (Homo sapiens, UniProt Q08881).
T3 construct: Kinases are expressed as either kinase domains or full length constructs; made in house
T3 sequence (Q08881 1-620): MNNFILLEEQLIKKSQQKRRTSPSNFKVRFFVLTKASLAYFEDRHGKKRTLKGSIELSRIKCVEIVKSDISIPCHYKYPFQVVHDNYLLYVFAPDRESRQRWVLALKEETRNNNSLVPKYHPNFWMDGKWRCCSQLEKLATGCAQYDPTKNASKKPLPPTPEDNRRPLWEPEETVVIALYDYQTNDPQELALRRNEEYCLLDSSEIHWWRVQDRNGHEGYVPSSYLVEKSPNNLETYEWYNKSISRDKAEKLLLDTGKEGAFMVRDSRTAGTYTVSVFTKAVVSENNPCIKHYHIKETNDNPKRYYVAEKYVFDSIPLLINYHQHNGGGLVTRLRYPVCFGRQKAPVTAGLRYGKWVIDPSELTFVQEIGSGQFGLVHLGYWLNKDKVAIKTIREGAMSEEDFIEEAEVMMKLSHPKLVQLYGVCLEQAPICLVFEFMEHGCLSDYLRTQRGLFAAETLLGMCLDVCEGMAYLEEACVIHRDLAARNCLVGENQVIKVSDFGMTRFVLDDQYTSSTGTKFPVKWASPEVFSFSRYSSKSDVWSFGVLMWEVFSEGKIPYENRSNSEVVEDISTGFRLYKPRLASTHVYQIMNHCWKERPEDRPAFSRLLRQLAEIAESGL
The assay is described as follows: Kinase inhibition assay (33P transfer), Itk. Conditions: read-out: Itk-1. The method, boiled down: (§2)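 Kinase domains or full-length enzymes, GST- or polyHis-tagged, were expressed in E. coli or baculovirus High Five cells and affinity-purified. Transfer of 33PO4 from ATP onto plate-bound poly(Glu,Tyr) 4:1 or poly(Arg,Ser) 3:1 was counted by liquid scintillation after a 0.5% phosphoric acid wash. IC50 = concentration halving incorporation.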

The target of another assay is T4, EGFR (Homo sapiens, UniProt P00533).
T4 construct: Kinases are expressed as either kinase domains or full length constructs; made in house
The assay is described as follows: Kinase inhibition assay (33P transfer), EGFR. Conditions: Table 2, kinase inhibition class; read-out: EGFR-1. The method, boiled down: as §2

The target in another assay is T5, ErbB2 (Homo sapiens, UniProt P04626).
T5 construct: Kinases are expressed as either kinase domains or full length constructs; made in house
Briefly: Kinase inhibition assay (33P transfer), ErbB2. Conditions: read-out: ErbB2-2. An outline of the steps:
as §2

Another assay concerns the target T6, Kdr (Homo sapiens, UniProt P35968).
T6 construct: Kinases are expressed as either kinase domains or full length constructs; made in house
The assay is described as follows: Kinase inhibition assay (33P transfer), Kdr. Conditions: read-out: KDR-1. An outline of the steps:
as §1

For the next assay, the target named is T7, c-Met (Homo sapiens, UniProt P08581).
T7 construct: Kinases are expressed as either kinase domains or full length constructs; made in house
Briefly: Kinase inhibition assay (33P transfer), c-Met. Conditions: Table 2, kinase inhibition class; read-out: Met-1. An outline of the steps:
as §2

A further assay deals with T8, AKT (Homo sapiens, UniProt Q9Y243).
T8 construct: Kinases are expressed as either kinase domains or full length constructs; made in house
Briefly: Kinase inhibition assay (33P transfer), AKT. Conditions: Table 2, kinase inhibition class; read-out: AKT3-1. An outline of the steps:
as §1

In the next assay the target is T9, IGFR-1 (Homo sapiens, UniProt P08069).
T9 construct: Kinases are expressed as either kinase domains or full length constructs; made in house
Briefly: Kinase inhibition assay, IGFR-1 (Table 2). Conditions: Table 2, kinase inhibition class.

For another assay, the target named is T10, PDGFRB (Homo sapiens, UniProt P09619).
T10 construct: Kinases are expressed as either kinase domains or full length constructs; made in house
Briefly: Kinase inhibition assay (33P transfer), PDGFRB. Conditions: read-out: PDGFRB-1.

T1 sequence (P06239 whole entry, species assumed, the tested form may be a part): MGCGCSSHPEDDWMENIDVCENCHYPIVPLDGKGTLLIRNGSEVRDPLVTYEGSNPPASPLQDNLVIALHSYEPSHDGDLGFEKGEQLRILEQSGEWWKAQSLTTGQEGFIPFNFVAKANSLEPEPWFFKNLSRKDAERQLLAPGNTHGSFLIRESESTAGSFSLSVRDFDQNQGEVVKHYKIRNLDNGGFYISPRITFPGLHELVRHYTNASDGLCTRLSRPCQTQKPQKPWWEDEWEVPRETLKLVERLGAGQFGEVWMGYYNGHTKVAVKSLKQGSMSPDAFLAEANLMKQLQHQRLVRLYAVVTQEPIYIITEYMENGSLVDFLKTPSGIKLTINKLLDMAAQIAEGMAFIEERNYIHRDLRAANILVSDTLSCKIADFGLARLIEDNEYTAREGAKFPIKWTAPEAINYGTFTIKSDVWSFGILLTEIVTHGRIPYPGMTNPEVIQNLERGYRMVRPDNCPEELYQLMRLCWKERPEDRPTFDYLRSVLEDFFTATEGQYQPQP
T4 sequence (P00533 25-1210, species assumed): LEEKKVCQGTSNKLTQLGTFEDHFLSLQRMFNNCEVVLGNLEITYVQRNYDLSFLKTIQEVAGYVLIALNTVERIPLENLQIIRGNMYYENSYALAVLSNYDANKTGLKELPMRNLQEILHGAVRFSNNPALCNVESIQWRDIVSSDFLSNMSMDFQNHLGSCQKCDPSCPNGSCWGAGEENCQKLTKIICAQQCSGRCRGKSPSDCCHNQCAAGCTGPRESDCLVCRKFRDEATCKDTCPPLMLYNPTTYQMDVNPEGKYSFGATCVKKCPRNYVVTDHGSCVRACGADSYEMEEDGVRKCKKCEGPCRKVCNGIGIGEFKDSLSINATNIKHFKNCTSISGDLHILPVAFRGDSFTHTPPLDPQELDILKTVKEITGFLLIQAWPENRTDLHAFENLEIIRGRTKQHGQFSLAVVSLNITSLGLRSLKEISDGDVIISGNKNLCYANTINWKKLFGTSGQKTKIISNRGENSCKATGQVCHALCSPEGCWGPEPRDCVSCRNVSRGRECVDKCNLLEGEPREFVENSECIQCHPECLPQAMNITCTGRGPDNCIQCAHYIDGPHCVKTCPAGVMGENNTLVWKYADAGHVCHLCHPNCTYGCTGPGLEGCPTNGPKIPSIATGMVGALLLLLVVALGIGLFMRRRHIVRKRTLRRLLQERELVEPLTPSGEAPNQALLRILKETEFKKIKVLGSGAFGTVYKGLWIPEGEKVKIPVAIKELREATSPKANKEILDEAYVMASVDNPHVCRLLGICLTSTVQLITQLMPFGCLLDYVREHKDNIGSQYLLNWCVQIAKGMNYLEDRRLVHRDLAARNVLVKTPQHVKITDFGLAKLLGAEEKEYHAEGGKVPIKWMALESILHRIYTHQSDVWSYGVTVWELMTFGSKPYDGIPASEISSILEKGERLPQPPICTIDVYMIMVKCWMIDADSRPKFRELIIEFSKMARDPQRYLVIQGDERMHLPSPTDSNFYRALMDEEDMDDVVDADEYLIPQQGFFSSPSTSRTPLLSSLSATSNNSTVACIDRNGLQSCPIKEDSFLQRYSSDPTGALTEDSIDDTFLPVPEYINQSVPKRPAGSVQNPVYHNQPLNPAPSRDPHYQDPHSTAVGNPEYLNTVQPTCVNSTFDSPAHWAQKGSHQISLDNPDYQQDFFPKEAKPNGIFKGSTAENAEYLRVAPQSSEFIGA
T5 sequence (P04626 23-1255, species assumed): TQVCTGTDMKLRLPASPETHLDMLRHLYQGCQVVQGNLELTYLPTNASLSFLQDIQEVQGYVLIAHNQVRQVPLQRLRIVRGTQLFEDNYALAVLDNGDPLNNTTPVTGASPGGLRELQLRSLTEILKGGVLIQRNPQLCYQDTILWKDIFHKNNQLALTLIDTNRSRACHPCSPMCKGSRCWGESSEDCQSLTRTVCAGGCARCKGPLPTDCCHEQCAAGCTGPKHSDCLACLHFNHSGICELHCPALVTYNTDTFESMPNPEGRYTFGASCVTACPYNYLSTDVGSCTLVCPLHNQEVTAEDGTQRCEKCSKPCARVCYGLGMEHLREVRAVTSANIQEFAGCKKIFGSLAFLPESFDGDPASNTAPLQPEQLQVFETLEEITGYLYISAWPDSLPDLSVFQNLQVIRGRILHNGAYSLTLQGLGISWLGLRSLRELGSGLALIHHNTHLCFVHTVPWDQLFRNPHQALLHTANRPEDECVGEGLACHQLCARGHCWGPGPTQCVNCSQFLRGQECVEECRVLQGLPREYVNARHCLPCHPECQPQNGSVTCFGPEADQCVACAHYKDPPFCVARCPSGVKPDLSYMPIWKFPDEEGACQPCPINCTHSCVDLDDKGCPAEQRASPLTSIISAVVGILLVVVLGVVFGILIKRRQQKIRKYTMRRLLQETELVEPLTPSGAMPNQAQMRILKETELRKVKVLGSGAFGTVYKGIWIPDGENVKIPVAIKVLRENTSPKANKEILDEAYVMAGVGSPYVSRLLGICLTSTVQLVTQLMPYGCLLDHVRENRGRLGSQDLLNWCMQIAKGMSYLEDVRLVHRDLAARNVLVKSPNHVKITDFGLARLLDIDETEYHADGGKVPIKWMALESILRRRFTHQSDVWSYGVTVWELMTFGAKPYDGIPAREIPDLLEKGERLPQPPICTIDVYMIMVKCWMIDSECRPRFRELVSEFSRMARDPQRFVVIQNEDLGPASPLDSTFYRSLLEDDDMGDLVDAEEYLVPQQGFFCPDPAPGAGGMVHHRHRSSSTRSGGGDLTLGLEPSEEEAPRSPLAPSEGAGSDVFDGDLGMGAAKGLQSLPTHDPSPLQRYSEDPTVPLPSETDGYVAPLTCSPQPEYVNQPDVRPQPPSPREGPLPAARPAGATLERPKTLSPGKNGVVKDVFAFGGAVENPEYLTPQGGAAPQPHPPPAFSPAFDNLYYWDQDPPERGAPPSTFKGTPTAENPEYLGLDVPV
T10 sequence (P09619 33-1106, species assumed): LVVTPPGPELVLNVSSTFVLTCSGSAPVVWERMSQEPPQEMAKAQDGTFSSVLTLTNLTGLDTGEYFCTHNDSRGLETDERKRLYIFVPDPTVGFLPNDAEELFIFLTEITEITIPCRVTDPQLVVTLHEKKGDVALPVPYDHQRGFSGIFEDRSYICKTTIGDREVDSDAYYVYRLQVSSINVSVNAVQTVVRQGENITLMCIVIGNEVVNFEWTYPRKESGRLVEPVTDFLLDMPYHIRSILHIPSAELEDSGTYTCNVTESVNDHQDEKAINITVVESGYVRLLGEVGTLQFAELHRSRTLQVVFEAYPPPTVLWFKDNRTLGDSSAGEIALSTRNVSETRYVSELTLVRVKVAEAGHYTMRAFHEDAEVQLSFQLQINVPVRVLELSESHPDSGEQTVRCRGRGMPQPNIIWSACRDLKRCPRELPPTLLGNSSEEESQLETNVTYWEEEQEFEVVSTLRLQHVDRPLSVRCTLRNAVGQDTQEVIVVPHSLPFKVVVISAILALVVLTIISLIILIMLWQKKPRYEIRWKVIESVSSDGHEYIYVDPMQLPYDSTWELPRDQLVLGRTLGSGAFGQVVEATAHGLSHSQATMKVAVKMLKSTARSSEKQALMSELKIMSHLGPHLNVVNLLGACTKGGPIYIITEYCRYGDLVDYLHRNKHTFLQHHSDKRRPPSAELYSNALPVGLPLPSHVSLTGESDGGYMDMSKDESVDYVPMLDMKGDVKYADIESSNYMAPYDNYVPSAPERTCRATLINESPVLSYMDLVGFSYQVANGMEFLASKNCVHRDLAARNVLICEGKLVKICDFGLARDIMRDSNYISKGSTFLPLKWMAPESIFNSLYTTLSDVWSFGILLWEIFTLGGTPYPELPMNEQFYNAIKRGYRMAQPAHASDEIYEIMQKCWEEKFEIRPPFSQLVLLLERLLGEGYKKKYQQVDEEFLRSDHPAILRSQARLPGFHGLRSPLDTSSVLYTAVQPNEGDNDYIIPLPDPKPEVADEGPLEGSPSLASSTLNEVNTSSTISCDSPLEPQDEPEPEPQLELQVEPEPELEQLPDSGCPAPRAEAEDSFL
T8 sequence (Q9Y243 whole entry, the tested form may be a part): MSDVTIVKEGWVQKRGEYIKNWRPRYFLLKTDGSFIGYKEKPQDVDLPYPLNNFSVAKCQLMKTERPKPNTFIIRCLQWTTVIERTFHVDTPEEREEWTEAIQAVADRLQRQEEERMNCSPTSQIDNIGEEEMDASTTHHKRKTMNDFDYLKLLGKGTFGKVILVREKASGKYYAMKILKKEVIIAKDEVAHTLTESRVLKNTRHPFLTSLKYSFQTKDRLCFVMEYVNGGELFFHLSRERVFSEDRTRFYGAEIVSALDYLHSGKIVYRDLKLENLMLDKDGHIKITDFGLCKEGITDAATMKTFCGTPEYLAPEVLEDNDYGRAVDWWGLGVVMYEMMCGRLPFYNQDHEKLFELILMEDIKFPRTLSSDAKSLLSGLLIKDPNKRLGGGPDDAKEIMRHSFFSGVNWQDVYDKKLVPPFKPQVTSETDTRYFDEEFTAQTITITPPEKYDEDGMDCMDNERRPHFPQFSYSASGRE

Regarding `CN(c1cccc(Cl)c1)c1ncnc(Nc2cccc(CNC(=O)O[C@@H]3CCOC3)c2)n1` [Compound 721], the IC50 at Lck was 0.879 to 5.28 µM; at Zap-70, over 9.89 µM; at Itk it was over 9.89 µM; on EGFR, under 0.879 µM; on ErbB2 it was 0.879 to 5.28 µM; at Kdr it was 0.879 to 5.28 µM. For the same compound, the IC50 is 0.879 to 5.28 µM at c-Met, over 9.89 µM at AKT, 7.69 to 9.89 µM against IGFR-1 and 0.879 to 5.28 µM on PDGFRB.

Take `COC(=O)Cc1cccc(Nc2ncnc(-n3c(N)nc4ccccc43)n2)c1` [Compound 546]: the IC50 on Lck is 1.07 to 6.39 µM; at Zap-70, 9.32 to 12 µM; on Itk, 1.07 to 6.39 µM; on EGFR it was 6.39 to 9.32 µM; at ErbB2 it was 6.39 to 9.32 µM; on Kdr it was under 1.07 µM. The IC50 was 6.39 to 9.32 µM at c-Met, 9.32 to 12 µM at AKT, under 1.07 µM on IGFR-1 and 1.07 to 6.39 µM on PDGFRB.

As for `COc1cc(Nc2ncnc(Nc3cc(OC)c(OCCN4CCOCC4)c(OC)c3)n2)cc(OC)c1OC` [Compound 562], the IC50 at Lck is under 0.737 µM; on Zap-70 it was over 8.29 µM; on Itk it was over 8.29 µM; on EGFR, under 0.737 µM; on ErbB2, 4.42 to 6.45 µM; at Kdr it was 4.42 to 6.45 µM. In addition, the IC50 at c-Met is over 8.29 µM; at AKT, over 8.29 µM; on IGFR-1, 4.42 to 6.45 µM; at PDGFRB, 4.42 to 6.45 µM.

For the compound `Nc1nc2ccccc2n1-c1ncnc(Nc2cccc(CC(=O)O)c2)n1` [Compound 544], the IC50 was over 12.5 µM at Lck; over 12.5 µM on Zap-70; over 12.5 µM at Itk; over 12.5 µM on EGFR; over 12.5 µM at ErbB2; under 1.11 µM at Kdr. Further, the IC50 is over 12.5 µM at c-Met, over 12.5 µM at AKT, under 1.11 µM against IGFR-1 and 1.11 to 6.64 µM on PDGFRB.

For the compound `Cc1ccc2c(c1)CCCN2c1ncnc(NCc2cccnc2)n1` [Compound 777], the IC50 is over 13.5 µM at Lck; over 13.5 µM at Zap-70; 10.5 to 13.5 µM on Itk; over 13.5 µM on EGFR; over 13.5 µM at ErbB2; over 13.5 µM on Kdr. Further, the IC50 at c-Met, at AKT, against IGFR-1 and on PDGFRB was over 13.5 µM in each case.

As for `COc1cccc(Nc2ncnc(Nc3cc(-c4ccccc4)n[nH]3)n2)c1` [Compound 1011], the IC50 at Lck is 1.11 to 6.68 µM; on Zap-70, over 12.5 µM; on Itk it was 1.11 to 6.68 µM; at EGFR, 1.11 to 6.68 µM; on ErbB2, 1.11 to 6.68 µM; on Kdr, 1.11 to 6.68 µM. Also, the IC50 is 1.11 to 6.68 µM at c-Met, 1.11 to 6.68 µM at AKT, under 1.11 µM against IGFR-1 and 1.11 to 6.68 µM at PDGFRB.

Turning to `COc1cc(Nc2ncnc(Nc3ccc4c(cnn4C)c3)n2)cc(OC)c1OC` [Compound 557], the IC50 is under 0.982 µM at Lck; over 11 µM at Zap-70; 8.59 to 11 µM at Itk; 0.982 to 5.89 µM on EGFR; under 0.982 µM at ErbB2; 0.982 to 5.89 µM at Kdr. The IC50 was over 11 µM at c-Met, over 11 µM on AKT, under 0.982 µM against IGFR-1 and under 0.982 µM at PDGFRB.

Turning to `CN(c1cccc(Cl)c1)c1ncnc(Nc2ccc(Cl)c(Cl)c2)n1` [Compound 708], the IC50 on Lck is over 11.8 µM; at Zap-70, 6.3 to 9.19 µM; at Itk it was over 11.8 µM; at EGFR it was over 11.8 µM; on ErbB2 it was over 11.8 µM; on Kdr, over 11.8 µM. For the same compound, the IC50 at c-Met, at AKT, on IGFR-1 and on PDGFRB was over 11.8 µM throughout.

Turning to `COc1cc(Nc2ncnc(N(C)c3ccc4c(cnn4Cc4ccccc4)c3)n2)cc(OC)c1OC` [Compound 566], the IC50 is under 0.804 µM on Lck; over 9.04 µM at Zap-70; over 9.04 µM at Itk; under 0.804 µM on EGFR; under 0.804 µM on ErbB2; under 0.804 µM at Kdr. Besides, the IC50 was 0.804 to 4.82 µM at c-Met, over 9.04 µM on AKT, 7.03 to 9.04 µM on IGFR-1 and 0.804 to 4.82 µM at PDGFRB.

`COc1cc(Nc2ncnc(N(C)c3ccc(F)c(Cl)c3)n2)cc(OC)c1OC` [Compound 710]: the IC50 was under 0.953 µM at Lck; over 10.7 µM on Zap-70; over 10.7 µM at Itk; under 0.953 µM on EGFR; under 0.953 µM on ErbB2; 0.953 to 5.72 µM at Kdr. The IC50 at c-Met was 0.953 to 5.72 µM; on AKT, over 10.7 µM; against IGFR-1 it was 5.72 to 8.34 µM; at PDGFRB, 0.953 to 5.72 µM.

As to `CCOC(=O)N1CCC(Nc2ncnc(N3CCCc4cc(C)ccc43)n2)CC1` [Compound 765], the IC50 at Lck, at Zap-70, on Itk, at EGFR, on ErbB2 and at Kdr was over 11.3 µM in each case. Moreover, the IC50 on c-Met, on AKT, at IGFR-1 and at PDGFRB was over 11.3 µM each time.

Regarding `c1ccc(Cn2ncc3cc(Nc4ncnc(Nc5ncccn5)n4)ccc32)cc1` [Compound 738], the IC50 on Lck was over 11.4 µM; on Zap-70 it was over 11.4 µM; at Itk it was 1.01 to 6.07 µM; on EGFR, 1.01 to 6.07 µM; at ErbB2, 6.07 to 8.85 µM; at Kdr it was over 11.4 µM. Also, the IC50 at c-Met was over 11.4 µM; at AKT it was over 11.4 µM; on IGFR-1 it was 1.01 to 6.07 µM; at PDGFRB it was over 11.4 µM.

As to `Cc1ccc2c(c1)CCCN2c1ncnc(Nc2cc[nH]n2)n1` [Compound 766], the IC50 at Lck was 1.3 to 7.81 µM; at Zap-70, over 14.6 µM; on Itk, under 1.3 µM; at EGFR, 1.3 to 7.81 µM; on ErbB2, 1.3 to 7.81 µM; at Kdr it was 1.3 to 7.81 µM. The IC50 on c-Met was 1.3 to 7.81 µM; on AKT, over 14.6 µM; at IGFR-1, 1.3 to 7.81 µM; at PDGFRB, 1.3 to 7.81 µM.

Consider `CN(c1cccc(Cl)c1)c1ncnc(Nc2ccc3cn[nH]c3c2)n1` [Compound 718], for which the IC50 on Lck is over 12.8 µM; at Zap-70 it was 9.95 to 12.8 µM; at Itk, over 12.8 µM; at EGFR, under 1.14 µM; on ErbB2, over 12.8 µM; on Kdr, over 12.8 µM. For the same compound, the IC50 at c-Met was over 12.8 µM; at AKT it was 9.95 to 12.8 µM; at IGFR-1 it was over 12.8 µM; at PDGFRB, 6.82 to 9.95 µM.
